Laboratory results as given in patent publication US20110039873A1, “SUBSTITUTED PYRAZOLO[1,5-a] PYRIDINE COMPOUNDS HAVING MULTI-TARGET ACTIVITY” (priority 2009, published 2011).

Experiments:
[1] = target: T1, catalytic domain of phosphodiesterase 4B enzyme cloned from human brain (Homo sapiens, UniProt Q07343); assay: PDE4 inhibition assay (PDELight); type: biochemical; conditions: for IC50: 5 uM cAMP, read-out: PDE 4 Inhibition (IC50 in μM)
T1 construct: the catalytic domain of phosphodiesterase 4B enzyme; purchased Scottish Biomedical
T1 sequence (Q07343 330-659 limits assumed): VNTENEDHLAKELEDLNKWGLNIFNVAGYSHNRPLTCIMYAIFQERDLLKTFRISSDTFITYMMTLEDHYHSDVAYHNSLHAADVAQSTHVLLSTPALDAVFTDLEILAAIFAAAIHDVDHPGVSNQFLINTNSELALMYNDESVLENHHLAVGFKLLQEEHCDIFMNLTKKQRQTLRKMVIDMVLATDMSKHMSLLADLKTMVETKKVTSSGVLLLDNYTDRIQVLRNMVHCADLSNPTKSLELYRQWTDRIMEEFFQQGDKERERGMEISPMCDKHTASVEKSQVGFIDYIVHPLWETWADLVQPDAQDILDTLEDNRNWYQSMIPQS
Outline: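 Human PDE4B catalytic domain (40 mU/well) incubated with 5 uM cAMP. AMP formed was converted to ATP and measured by luciferase luminescence (PDELight). IC50 derived by nonlinear regression curve fit.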

[2] = test system: at least one of JNK 3 or JNK 2 and at least one of PDE 10 or PDE 4; assay: Dual inhibition (phosphodiesterase and JNK); type: biochemical, human; conditions: IC50 JNK 3 or JNK 2 less than about 5.00 μM and PDE 10 or PDE 4 less than about 20.0 or 30.0 μM
Outline: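 JNK2/JNK3: full-length human enzyme with 3 uM ATF2 and 10 uM ATP for 1 h, ATP depletion by luciferase luminescence. PDE4B catalytic domain with 5 uM cAMP, or PDE10A1 with 1 uM cAMP, 1 h; AMP converted to ATP for luminescence. Compounds 0–30 uM; IC50 by nonlinear regression.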

Male Wistar rats = assay: Morris Maze test; type: in vivo, rat
Source text: The potential cognitive enhancing properties of the exemplary compound, AV1137, were examined in the Morris Maze test in the rat.
Male Wistar rats were given 4 training sessions over 4 consecutive days. The training session consisted of 4 consecutive trials in the Morris Maze, each separated by 60 seconds. For each trial, the animal was placed in the maze at one of two starting points equidistant from the escape platform and allowed to find the escape platform. The animal was left on the escape platform for 60 seconds before starting a new trial. […] During the 4 trials the animals started the maze twice from each starting point in a randomly determined order per animal.
The trials were video-recorded and the behaviour of animals was analysed using a video-tracking system (Panlab: SMART). The measures taken were the escape latency, the path length and the swim speed at each trial. Scopolamine (0.5 mg/kg i.p.), administered 30 minutes before each session, induces amnesia as indicated by the failure of scopolamine-treated rats to reduce their escape latencies from trial to trial. 12 rats were studied per group. […]
AV1137 was evaluated at 2 and 5 mg/kg, administered twice daily. […]
AV1137 was also administered at the end of each acquisition day (i.e. 6-8 hours after the first administration). […] Data were analyzed by comparing treated groups with appropriate control using unpaired Student's t tests.

6-OHDA lesioned rats = assay: 6-OHDA (Parkinson's) model, apomorphine induced rotations; type: in vivo, rat; conditions: 50 mg/kg PO once daily, after 7 days; control 444, baseline 315
Method: AV1173 was evaluated in a 6-OHDA lesioned rats, a standard rat model of Parkinson's disease. (See, e.g., Ungerstedt, U. “6-hydroxydopamine induced degeneration of monoamine neurons.” Eur. J. Pharm. 5: 107-110, 1968; Garvey P M, et al., “Injection of biologically relevant active substances into the brain.” Methods in Neurosciences. 21: 214-234, 1994).
Pre-lesioned rats were purchased from a vendor (Taconic) following stereotaxic injection into the brain of the neurotoxin 6-hydroxydopamine (6-OHDA), which leads to neuronal cell loss in those brain regions affected in PD (in particular the substantia nigra). Briefly, anesthetized rats were injected with […] of 6-OHDA using stereotaxic coordinates to locate the needle within the nigrostatial pathway. A 2 ug/uL solution of 6-OHDA was infused at a rate of 1 ul/min for four minutes. […] On […] post-injection, rats began a once-daily oral regimen of AV1173 (50 mg/kg PO). Rats were assessed for rotational behavior following 0.5 mg/kg apomorphine challenge, one week from the initiation of dosing (Day 17 post-6-OHDA injection).

SMILES | PDE-4 inhibition (in words) [1] | IC50 [1] | dual inhibition (phosphodiesterase and JNK) [2] | escape latencies (Male Wistar rats; normal rats (no scopolamine), 5 mg/kg i.p., relative to saline controls, FIG. 5) | escape latency and distance swum (Male Wistar rats; scopolamine-induced deficit, 2 and 5 mg/kg i.p. twice daily, relative to scopolamine treated controls, FIG. 4) | average number of apomorphine induced rotations in 30 minutes (6-OHDA lesioned rats)
CC(C)Nc1nccc(-c2c(C(C)C)nn3ccccc23)n1 [AV1137, N-isopropyl-4-(2-isopropylpyrazolo[1,5-a]pyridin-3-yl)pyrimidin-2-amine] | particularly effective | 4.3 µM | effective dual inhibitors | trend for reduced escape latencies | trend was seen for decreased escape latency and distance swum | –
CC(C)Nc1nccc(-c2cnn3ccccc23)n1 [AV1164, N-isopropyl-4-(pyrazolo[1,5-a]pyridin-3-yl)pyrimidin-2-amine] | particularly effective | 5.9 µM | effective dual inhibitors | – | – | –
c1ccn2ncc(-c3ccnc(NC4CCCC4)n3)c2c1 [AV1165, N-cyclopentyl-4-(pyrazolo[1,5-a]pyridin-3-yl)pyrimidin-2-amine] | – | 14 µM | effective dual inhibitors | – | – | –
CC(C)Nc1nccc(-c2c(C3CC3)nn3ccccc23)n1 [AV1173, 4-(2-cyclopropylpyrazolo[1,5-a]pyridin-3-yl)-N-isopropylpyrimidin-2-amine] | particularly effective | 1.1 µM | effective dual inhibitors | – | – | 354
